Common to all, as to type: in vivo, Sprague-Dawley (SD) rats
Test [1] deals with PARP. In words: Example 1 immunohistochemistry: PARP-immunoreactive cells. Conditions: for Numbers of neurons: PARP+: 29 days after neuron apoptosis. As to the method: The induction of neuron apoptosis was carried out by damaging the right hemisphere of the brain of animals. Specifically, animals were anesthetized with 2 or 3% isoflurane in the mixture of 70% N2O and 28.5% O2, and were maintained with 1 to 1.5% isoflurane in the mixture of 70% N2O and 28.5% O2. After that the temporalis muscle was bisected and reflected through an incision made midway between the eye and the eardrum canal. The proximal MCA was exposed through a subtemporal craniectomy by microdental drills without removing the zygomatic arch and without transecting the facial nerve. […] Mortality was less than 5%. For sham control, all procedures were performed in the same way, with the exception of the occlusion of the MCA.
After deparraffinized of cerebral histological paraffin sections, citrate buffer antigen (epitope) retrieval pretreatment were conducted as previously (Shi S R et al., J Histochem Cytochem. 41:1599-604(1993)). Briefly, pre-heat water bath with staining dish containing 10 mM citrate buffers (pH 6.0) until temperature reaches 95-100° C. Immerse slides in the staining dish and place the lid loosely on the staining dish. Incubate for 20 minutes and turn off the water bath. Place the staining dish at room temperature and allow the slides to cool for 20 minutes. After epitope retrivals, sections were immunostained as following steps:
Incubate sections with methanol and 0.3% H2O2 for 30 minutes for blocking endogenous peroxidase activity at room temperature and rinse in 0.01M phosphate buffered saline (PBS; pH 7.2) for 3 times;
Incubate sections with normal horse serum blocking solution (Vector Lab. Inc., Burlingame, USA. Dilution 1:100) for 1 hour to block non-specific binding of immunoglobulin at room temperature in humidity chamber, and rinse in 0.01M PBS for 3 times;
Incubate sections with primary antisera for overnight at 4° C. in humidity chamber and rinse in 0.01M PBS for 3 times;
Incubate sections with biotinylated universal secondary antibody (Vector Lab., Dilution 1:50) for 1 hour at room temperature in humidity chamber and rinse in 0.01M PBS for 3 times;
Incubate sections with ABC reagents (Vectastain Elite ABC Kit, Vector Lab., Dilution 1:50) for 1 hour at room temperature in humidity chamber and rinse in 0.01M PBS for 3 times;
Incubate sections in Peroxidae substrate kit (Vector Lab.) for 5 min at room temperature and rinse in 0.01M PBS for 3 times;
Counterstain with Mayer's hematoxylin solution and rinse in running tap water for 30 minutes;
Dehydrate through 95% ethanol for 2 minutes, 100% ethanol for 3 times and Clear in xylene for two times; and
Coverslip with permanent mounting medium and observed under light microscope (Nikkon, Japan).
Histomorphometry: The nerve cells occupied by over 10% of immunoreactivities, the density, of each antiserum, caspase-3 and PARP were regarded as immunoreactive. In the present study, the numbers of each caspase-3 and PARP-immunoreactive cells among mm^2 of ipsilateral peri-infarct/defect cerebral cortex were measured using a computer-assisted image analysis program, respectively.
(§1) All data were expressed as mean±standard deviation (S.D.) of ten rats. Multiple comparison tests for different dose groups were conducted. Variance homogeneity was examined using the Levene test (Levene A, Clin Otalary, 1981; 6:145-51). […] Statistical analyses were conducted using SPSS (Release 14K, SPSS Inc., USA; Ludbrook, Clin Exp Pharmacol Physiol, 1997; 24:294-6). In addition, the percent changes between neuron apoptosis control and mirodenafil treated rats were calculated to help the understanding of the efficacy of test material as follow equation 3. Percentage changes as compared with neuron apoptosis control (%)=[((Data of mirodenafil treated groups−Data of neuron apoptosis control)/Data of neuron apoptosis control)×100] [EQUATION 3]

Test [2] in a line: Example 1 body weight measurements. Conditions: for Body weights at 1 day before surgery / Body weights at surgery [A]: before treatment, in g. As to the method:
Changes of body weight were measured at 1 day before neuron apoptosis, the day of neuron apoptosis, 1, 7 14, 21, 28 and 29 days after neuron apoptosis using an automatic electronic balance. To reduce the individual differences, the body weight gains after neuron apoptosis and continuous oral treatment of materials were calculated as follows. Body weight gains (g) during 29 days after neuron apoptosis=(Body weight at the 29 days after neuron apoptosis−body weight at the day of neuron apoptosis) [EQUATION 2]
as §1

The test system of test [3] is neuron apoptosis-operated rats. The experiment in a line: Example 2 hindlimb placing test. As to the method:
Sensorimotor function was evaluated by use of limb placing (de Ryck M et al., Stroke. 20:1383-90(1989)) and body swing (Borlongan and Sanberg, J Neurosci. 15:5372-8(1995)) tests. These tests were performed at 1 and 28 days after neuron apoptosis. The investigator performing the surgery and behavioral assessments was blinded to treatment assignment.
Limb placing test: Forelimb and hindlimb placement were assessed independently. For the forelimb placing test, the rats were held by their torso with their forepaws hanging free and moved slowly toward the edge of a tabletop, stopping short of touching the vibrissae (for vision-induced placing), touching the vibrissae (for vibrissae-induced placing), making light contact with the front of the forepaw to the edge of the tabletop (for tactile-induced placing), and pressing the forepaws to the edge of the table with increased pressure (for proprioceptive-induced placing). Hindlimb placing was conducted in the same manner as above but with tactile and proprioceptive stimulation applied to the front/top of each hindlimb. Each limb for placing in response to visual, vibrissae, tactile, and proprioceptive stimulation are scored in the following manner: normal performance=0 points; performance with unilateral limb=1 point; performance with a delay (2 seconds) and/or incomplete=2 point; no performance=3 points. A total of 12 points in forelimb placing test and 6 points in hindlimb placing test means maximal neurological deficit, and 0 points means normal performance.
All data were expressed as mean±standard deviation (S.D.) of ten rats. Multiple comparison tests for different dose groups were conducted. Variance homogeneity was examined using the Levene test (Levene A, Clin Otalary, 1981; 6:145-51). […] In addition, the percent changes as compared with neuron apoptosis control and mirodenafil treated rats were calculated to help the understanding of the efficacy of test substances as follow Equation 6 and 7. […]

As to `CCCOc1ccc(S(=O)(=O)N2CCN(CCO)CC2)cc1-c1nc2c(CCC)cn(CC)c2c(=O)[nH]1` [Mirodenafil, mirodenafil], the “numbers of PARP-immunoreactive neurons, change as compared with neuron apoptosis control” value in test [1] (0.5 mg/kg) is on record as −37.58%; in test [1] (1 mg/kg), −76.74%; in test [1] (2 mg/kg), −78.32%. The entries for the “Numbers of neurons: PARP+” value in test [1] (0.5 mg/kg s.c. once a day), in test [1] (1 mg/kg s.c. once a day) and in test [1] (2 mg/kg s.c. once a day) were 47.50 ± 9.44^ab cells/mm^2 of cerebral cortex, 17.70 ± 2.00^ab cells/mm^2 of cerebral cortex and 16.50 ± 3.81^ab cells/mm^2 of cerebral cortex, respectively. Besides, the “Body weights at 1 day before surgery” value in test [2] (0.5 mg/kg group) is recorded as 540.70 ± 23.66; in test [2] (1 mg/kg group), 539.70 ± 27.54; in test [2] (2 mg/kg group) it was 543.30 ± 26.39. For the same compound, the “Body weights at surgery [A]” value in test [2] (0.5 mg/kg group) is 510.20 ± 26.08; in test [2] (1 mg/kg group), 510.30 ± 28.32; in test [2] (2 mg/kg group), 513.40 ± 27.21. In addition, the results for the “body weight gains during 29 days, change as compared with neuron apoptosis control” value in test [2] (1 mg/kg) and in test [2] (2 mg/kg) were 218.52% and 155.74%, respectively. Further, the “hindlimb placing test scores at 28 days, change as compared with neuron apoptosis control” value in test [3] (1 mg/kg from 24 hrs after surgery) was −65.22%; in test [3] (1 mg/kg from 72 hrs after surgery), −39.13%; in test [3] (1 mg/kg from 168 hrs after surgery), −17.39%.
